In patent US8715735B2, “Stabilised supersaturated solids of lipophilic drugs” (Bayer Intellectual Property GmbH, priority 2004, dated 2014):

Tests used:
[1] = Saturation concentration of estradiol valerate in solvent at room temperature; assay type: physicochemical
Method: The resulting liquid is mixed with 1000 g Aeroperl® 300 to give a powder with homogeneously absorbed liquid. 24 mg of the described stabilised supersaturated formulation contains 1 mg estradiol valerate. […] The resulting liquid is mixed with 1667 g Aeroperl® 300 to give a powder with homogeneously absorbed liquid. 67 mg of the described stabilised supersaturated formulation contains 1 mg estradiol valerate. […] The resulting liquid is mixed with 1000 g Aeroperl® 300 to give a powder with homogeneously absorbed liquid. 44 mg of the described stabilised supersaturated formulation contains 1 mg estradiol valerate.

[2] = In-vitro dissolution test, USP XXVIII paddle apparatus 2, 0.4% aqueous sodium dodecyl sulfate; assay type: physicochemical; conditions: approx. 1 mg estradiol valerate tested, 1000 mL 0.4% SDS, 37° C., 75 rpm
Method: Formulations according to the examples 1 to 4 were investigated in an in-vitro dissolution test according to USP XXVIII Paddle apparatus 2 using 1000 mL of an 0.4% aqueous solution of sodium dodecyl sulfate as dissolution medium to ensure sink condition (37° C., 75 rpm). The amount of formulations to be tested was selected so that the composition contains approx. 1 mg of estradiol valerate. As reference, 1 mg unformulated estradiol valerate was investigated.

saturation concentration ([1]; in medium chain triglycerides (MCT) at room temperature): approx. 27 g/L
saturation concentration ([1]; in peanut oil at room temperature): approx. 30 g/L
saturation concentration ([1]; in polyethylene glycol (PEG) 400 at room temperature): approx. 50 g/L
Release estradiol valerate, 3 min ([2]; 3 min): 0.34 mg
Release estradiol valerate, 6 min ([2]; 6 min): 0.41 mg
Release estradiol valerate, 10 min ([2]; 10 min): 0.47 mg
Release estradiol valerate, 15 min ([2]; 15 min): 0.67 mg
Release estradiol valerate, 30 min ([2]; 30 min): 0.76 mg
Compound: CCCCC(=O)O[C@H]1CC[C@H]2[C@@H]3CCc4cc(O)ccc4[C@H]3CC[C@]12C [estradiol valerate]
